Read-outs that look alike come from different tables or passages of the source.
Experiments:
[1] = target: PfAtg8-PfAtg3 interaction (Plasmodium falciparum, UniProt Q8IJK2); format: binding, P. falciparum
[2] = system: P. falciparum 3D7 blood stages; settings: asterisk / PubChem reported values; read-out: IC50 Blood stage, derived from the literature; cited from earlier work
P. falciparum 3D7 = assay: SYBR Green I growth inhibition assay, blood stage; format: cell-based; settings: Plasmodium falciparum
Description: P. falciparum blood stage culturing. P. falciparum 3D7 and FCR3 cultures were maintained using modified, previously published methods at 37° C., 2% hematocrit of human red blood cells (Science 1976, 193, 673-675). Complete culture media consisted of sterile RPMI 1640 media (Life Technologies), supplemented with 10% human serum, 0.005% hypoxanthine, and buffered with final concentrations of 0.6% HEPES and 0.26% NaHCO3. The FCR3 strain was maintained at 3% CO2 and 5% O2, 92% N2 atmosphere, while the 3D7 strain was maintained at 5% CO2, 5% O2, 90% N2 atmosphere.
SYBR Green I growth inhibition assay. 10 μL of 10× compound diluted in RPMI 1640 media (Gibco) with a constant concentration of 1% DMSO was added to a 96 well plate (Costar), 90 μL of 1.5% ring stage, synchronized with 5% w/v sorbitol P. falciparum 3D7 parasites, 1% hematocrit, in culture media with 10% v/v human serum with 10 μg/mL gentamycin. Each compound concentration and 1% v/v DMSO controls were run in triplicate. Plates were incubated at 37° C. in 5% O2, 5% CO2 and 90% N2 for 72 hours. Plates were frozen, thawed, and incubated with 100-μL 2× SYBR green in lysis buffer (20 mM Tris pH 7.5, 5 mM EDTA, 0.008% Saponin, 0.08% TritonX-100) in the dark for at least one hour. Fluorescence was measured with a plate reader (HTS 7000, Perkin Elmer) at excitation/emission wavelengths of 485/535 nm.
Plasmodium parasite growth inhibition assay. P. falciparum 3D7 parasites were cultured as previously described (J Med Chem 57:4521-4531(2014)). Briefly, the parasites were cultured in 10% v/v human serum with 10 μg/mL gentamycin and synchronized with 5% w/v sorbitol. 1.5% ring stage parasites were added to 96 well plates (Costar) containing serial dilutions, performed in triplicate, of compound in RPMI 1640 media (Gibco). Plates were incubated at 37° C. in 5% O2, 5% CO2, and 90% N2 for 72 h. Plates were frozen, thawed, and incubated with 100 μL 2× SYBR green in lysis buffer (20 mM Tris pH 7.5, 5 mM EDTA, 0.008% Saponin, 0.08% TritonX-100) in the dark for 1 h. Fluorescence was measured with a plate reader (HTS 7000, PerkinElmer) at excitation/emission wavelengths of 485/535 nm.

[3] = system: PfAtg8-PfAtg3 interaction; assay: SPR protein-protein interaction assay, PfAtg8-PfAtg3 (VLS compounds); format: binding, P. falciparum; settings: 500 μM
Description: Surface Plasmon Resonance (SPR) protein-protein interaction assay. All measurements were carried out on a BiaCore 3000 instrument. We used the previously described SPR competition assay to test inhibition of the PfAtg8-PfAtg3 and hLC3-hAtg3 interaction. The standard running buffer was 10 mM HEPES, 150 mM NaCl, 0.01% Tween 20, adjusted to pH 7.5. Prior to performing SPR assays, all solutions were sterile filtered and degassed for 1 h at room temperature. For small molecule inhibitor studies, the same running buffer was supplemented with 1% DMSO. All dose dependency measurements were carried out in triplicate and corrected for DMSO absorption effects using double referencing with interspersed blank injections and an untreated flow cell on the SPR chip and the SPR analysis software Scrubber 2.0 (BioLogics). For each interaction pair, a new CM5 SPR chip was used. To exclude surface decay during the experiment, positive control injections were interspersed every 12th injection. For all interaction studies, the Atg3 homologue was immobilized and the corresponding Atg8 partner was passed as an analyte over the chip in either the presence or absence of small molecule inhibitors, dissolved to 100 mM in 100% DMSO and tested at 500 μM final concentration. Prior to the immobilization of Atg3 to an SPR chip, a pH scouting from pH 6.0 to pH 4.0 in intervals of 0.5 pH units was carried out to determine the best pre-concentration conditions for immobilization. Briefly, flow cells of an SPR chip were activated using N-hydroxysuccinimide (NHS) and 1-ethyl-3-(3-dimethylaminopropyl)carbodiimide (EDC) for 7 min with a flow rate of 20 μl/min. For PfAtg3 immobilization, a solution of 50 μg/ml of PfAtg3 in 10 mM sodium acetate pH 5.0 was passed over one flow cell until >500 Response Units (RU) were captured. The same procedure was followed for the immobilization of hAtg3. Activated free binding sites on the chip were blocked using 1 M ethanolamine for an additional 7 min. All experiments were carried out at 25° C. with a 40 μl/min flow rate and 75 s contact time, followed by a 1 min dissociation time and a 25 μl regeneration injection of 2 M MgCl2.
The dose-response curves were used to determine the approximate concentration of analyte (PfAtg8 or hLC3) needed to obtain a particular response unit (RU), typically in the range of 100-150 RU's. A fixed amount of analyte was then passed over the chip resulting in at least 100-150 response units (RU) in the absence of small molecules.

[4] = inhibition of PfAtg8-PfAtg3 interaction

Sequence of PfAtg8-PfAtg3 interaction (Plasmodium falciparum, UniProt Q8IJK2) (Q8IJK2 whole entry C32I/C119S/C122S, form open): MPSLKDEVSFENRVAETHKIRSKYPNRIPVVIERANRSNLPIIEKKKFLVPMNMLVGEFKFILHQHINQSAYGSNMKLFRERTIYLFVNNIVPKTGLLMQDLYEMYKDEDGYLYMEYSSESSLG

CSc1ccccc1C(=O)Nc1nc(-c2ccccn2)cs1 [Compound 2, 2-methylsulfanyl-N-(4-pyridin-2-yl-1,3-thiazol-2-yl)benzamide]
LEAN (SPR) ([1]; -log (IC50)/number of heavy atoms): 0.22 | IC50 ([1]; read-out: IC50 SPR, inhibition of PfAtg8-PfAtg3 interaction): 15000 nM | IC50 [2]: 200 nM

O=C(Nc1nc(-c2ccccn2)cs1)c1ccccc1Br [Compound 3, 2-bromo-N-(4-pyridin-2-yl-1,3-thiazol-2-yl)benzamide]
IC50 [2]: 1580 nM

Cc1ccc(-c2cc3c(SCC(=O)Nc4cc(C(F)(F)F)ccc4Cl)nccn3n2)cc1 [Compound 4, N-[2-chloro-5-(trifluoromethyl)phenyl]-2-[2-(4-methylphenyl)pyrazolo[1,5-a]pyrazin-4-yl]sulfanylacetamide]
IC50 SPR [1, 4]: None

CN(C)c1ccc(N2C(N)=NC(N)=NC2(C)C)cc1 [Compound 5, 1-[4-(dimethylamino)phenyl]-6,6-dimethyl-1,3,5-triazine-2,4-diamine]
IC50 SPR [1, 4]: None

Brc1ccc(Nc2nc3ccccc3nc2Nc2ccc(Br)cc2)cc1 [Compound 6, 2-N,3-N-bis(4-bromophenyl)quinoxaline-2,3-diamine]
IC50 SPR [1, 4]: None

COC(OC)c1ccc(C(=O)Nc2nc(-c3ccccn3)cs2)cc1 [Compound 9, 4-(Dimethoxymethyl)-N-[4-(pyridin-2-yl)-1,3-thiazol-2-yl]benzamide]
IC50 (P. falciparum 3D7; 3D7, two to three experiments, read-out: average IC50): 1480 ± 600 nM

O=C(NCC1Cc2cccc(-c3ccncc3)c2O1)c1csc2c1CCCC2 (stereo not shown) [Compound C11]
precipitation at the concentration used in the assay [3]: either precipitated or caused protein precipitation

O=C(NCc1ccco1)C1CCN(S(=O)(=O)c2ccc(Br)cc2)CC1 [Compound C13, 1-(4-bromobenzene-sulfonyl)-N-(furan-2-ylmethyl)piperidine-4-carboxamide]
precipitation at the concentration used in the assay [3]: either precipitated or caused protein precipitation

CCc1c(C(=O)NCc2csc(-c3cnccn3)n2)[nH]c2ccccc12 [Compound C19, 3-ethyl-N-([2-(pyrazin-2-yl)-1,3-thiazol-4-yl]methyl)-1H-indole-2-carboxamide]
precipitation at the concentration used in the assay [3]: either precipitated or caused protein precipitation

O=C(NCc1csc(-c2cnccn2)n1)c1cc2sccc2[nH]1 [Compound C30, N-([3-(pyrazin-3-yl)-1,3-thiazol-4-yl]methyl)-4H-thieno[3,2-b]pyrrole-5-carboxamide]
precipitation at the concentration used in the assay [3]: either precipitated or caused protein precipitation

CCN(CC)CCCC(C)Nc1ccnc2cc(Cl)ccc12 (stereo not shown) [chloroquine, reference compound]
IC50 (P. falciparum 3D7; 3D7): 3 ± 2 nM

Reference: patent US20170044150A1, “IDENTIFICATION OF COMPOUNDS WHICH INHIBIT ATG8-ATG3 PROTEIN-PROTEIN INTERACTION AND THEIR USE AS ANTIPARASITICAL AGENTS” (THE JOHNS HOPKINS UNIVERSITY, priority 2014, published 2017)
